Patent publication US10426850B2, “Collagen mimetic peptides for targeting collagen strands for in vitro and in vivo imaging and therapeutic use” (The Johns Hopkins University, priority 2011, dated 2019)
Entries after “also recorded” stand apart in the source; their conditions may differ.

Experiments:
[1] = CD refolding kinetics / triple helix folding rate of CMPs; assay type: physicochemical; conditions: after UV exposure; thermal quenching from 80° C. to 25° C.
Experimental: Circular dichroism spectroscopy. CD spectra were collected on JASCO 715 spectrophotometer equipped with a JASCO PTC-348 WI temperature controller and quartz cells (0.1 mm path length). CMP solutions (320 μL, 150 μM in 1×PBS) were stored at 4° C. for at least 24 hours before measurement. For photo-decaging, samples were exposed to 365 nm UV light for at least 30 minutes before the 4° C. incubation. The thermal melting studies were performed by measuring the ellipticity at 225 nm with 60° C./hr heating rate. Raw CD signal was normalized to mean residue ellipticity based on the peptide's length and concentration (Biopolymers 95:94-104 (2011)). Melting temperatures (Tm) were determined by fitting the mean residue ellipticity to a two-state model (Org Lett 8:4735-4738 (2006)). […] The CD spectra of intact and MMP-1 cleaved type I collagen (FIG. 12) was measured in 90 μg/mL protein solutions in 20 mM acetic acid buffer at 22° C. The 37° C. thermal stability profile (FIG. 2E, inset) was generated by monitoring the ellipticity at 222 nm immediately after transferring the cuvette to a temperature controlled cuvette holder pre-set to 37° C. The Tm values reported in this study are approximately 10° C. higher than the equilibrium Tm due to high heating rate (60° C./hr) (Biopolymers 73:682-688 (2004)).

[2] = target: T1, type I collagen films (fibrillar collagen) (Rattus norvegicus, UniProt P02454+P02466); test: Photo-triggered CMP binding assay on collagen films
T1 construct: Collagen solution (200 μL, 3.71 mg/mL, type I rat tail, BD Science); purchased BD Science; host or cells: rat tail
T1 sequence (P02454 152-1207 limits assumed): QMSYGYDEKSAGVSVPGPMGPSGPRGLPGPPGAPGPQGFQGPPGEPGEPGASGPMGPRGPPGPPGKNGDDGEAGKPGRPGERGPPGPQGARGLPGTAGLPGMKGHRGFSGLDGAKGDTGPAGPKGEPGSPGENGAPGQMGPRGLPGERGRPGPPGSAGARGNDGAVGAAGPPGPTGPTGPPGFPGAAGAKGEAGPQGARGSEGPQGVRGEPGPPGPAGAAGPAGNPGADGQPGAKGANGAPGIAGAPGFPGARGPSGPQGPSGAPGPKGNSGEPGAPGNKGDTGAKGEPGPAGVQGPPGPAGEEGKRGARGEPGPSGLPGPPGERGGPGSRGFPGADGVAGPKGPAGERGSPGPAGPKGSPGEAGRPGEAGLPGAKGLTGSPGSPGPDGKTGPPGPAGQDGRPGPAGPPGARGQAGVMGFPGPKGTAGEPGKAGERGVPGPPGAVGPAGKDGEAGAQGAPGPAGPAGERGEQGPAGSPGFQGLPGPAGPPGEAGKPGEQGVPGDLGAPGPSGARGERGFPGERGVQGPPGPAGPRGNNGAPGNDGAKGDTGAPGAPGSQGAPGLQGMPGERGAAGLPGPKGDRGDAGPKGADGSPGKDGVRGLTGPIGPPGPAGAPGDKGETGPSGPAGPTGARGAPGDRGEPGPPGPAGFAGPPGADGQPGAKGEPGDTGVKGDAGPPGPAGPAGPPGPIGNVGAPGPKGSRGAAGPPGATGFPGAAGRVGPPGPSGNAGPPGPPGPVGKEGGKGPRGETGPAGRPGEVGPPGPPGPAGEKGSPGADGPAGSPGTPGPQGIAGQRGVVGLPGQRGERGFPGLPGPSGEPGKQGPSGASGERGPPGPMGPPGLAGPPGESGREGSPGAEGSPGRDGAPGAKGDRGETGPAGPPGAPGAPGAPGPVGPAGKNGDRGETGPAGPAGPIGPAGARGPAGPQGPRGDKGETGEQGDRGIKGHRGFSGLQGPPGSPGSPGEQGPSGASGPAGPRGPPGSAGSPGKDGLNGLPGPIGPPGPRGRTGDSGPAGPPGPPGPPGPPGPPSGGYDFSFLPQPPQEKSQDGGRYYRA
T1 sequence (P02466 86-1125 limits assumed): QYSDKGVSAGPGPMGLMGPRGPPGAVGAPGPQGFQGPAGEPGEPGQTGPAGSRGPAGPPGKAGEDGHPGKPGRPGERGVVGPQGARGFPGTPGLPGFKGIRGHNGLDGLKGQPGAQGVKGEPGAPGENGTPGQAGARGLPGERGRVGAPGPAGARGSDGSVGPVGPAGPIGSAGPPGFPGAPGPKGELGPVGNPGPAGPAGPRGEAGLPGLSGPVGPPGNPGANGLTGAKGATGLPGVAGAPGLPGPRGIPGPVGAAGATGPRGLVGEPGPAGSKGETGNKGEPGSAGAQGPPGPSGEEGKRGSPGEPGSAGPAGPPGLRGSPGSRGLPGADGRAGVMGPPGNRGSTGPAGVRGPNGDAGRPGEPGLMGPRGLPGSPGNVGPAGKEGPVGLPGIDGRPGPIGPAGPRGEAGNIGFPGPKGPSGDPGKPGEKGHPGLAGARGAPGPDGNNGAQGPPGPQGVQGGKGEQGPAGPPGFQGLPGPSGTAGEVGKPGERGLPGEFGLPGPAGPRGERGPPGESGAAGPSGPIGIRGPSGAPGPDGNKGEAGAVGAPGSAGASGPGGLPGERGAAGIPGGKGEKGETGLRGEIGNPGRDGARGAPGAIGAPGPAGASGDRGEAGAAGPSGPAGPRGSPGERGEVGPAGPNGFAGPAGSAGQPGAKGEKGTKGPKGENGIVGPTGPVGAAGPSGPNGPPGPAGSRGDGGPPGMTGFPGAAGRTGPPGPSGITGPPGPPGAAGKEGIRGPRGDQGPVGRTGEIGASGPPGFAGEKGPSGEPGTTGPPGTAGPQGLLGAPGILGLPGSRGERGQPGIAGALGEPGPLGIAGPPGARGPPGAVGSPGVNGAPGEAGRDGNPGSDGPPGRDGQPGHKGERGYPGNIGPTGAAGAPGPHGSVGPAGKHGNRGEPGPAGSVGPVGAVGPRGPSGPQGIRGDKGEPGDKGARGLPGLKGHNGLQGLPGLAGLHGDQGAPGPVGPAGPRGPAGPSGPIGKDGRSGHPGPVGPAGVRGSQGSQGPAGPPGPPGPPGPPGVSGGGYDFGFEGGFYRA
Experimental: Collagen/gelatin binding assays. Collagen solution (200 μL, 3.71 mg/mL, type I rat tail, BD Science) in 0.02 N acetic acid was added to each well of a 96-well black/clear-bottom plate (Costar) and air-dried. To make gelatin films, the same collagen solution was denatured at 70° C. for 15 minutes before applying to the well. The dried films were neutralized and washed with 1×PBS buffer (pH 7.4) and deionized water. PBS solution of carboxyfluorescein-labeled caged CMP (40 μL, 50 μM, unless indicated otherwise) pre-equilibrated at 4° C. was added onto each reconstituted collagen or gelatin film and exposed to 365 nm UV light (10 mW/cm^2, from mercury arc lamp) for 11 minutes on ice. Wells for the UV-negative control groups were covered with aluminum foil to block UV exposure. After incubation at 4° C. for over 3 hours (unless indicated otherwise), the unbound materials were removed by rinsing with PBS buffer and deionized water. The films were allowed to dry in dark, after which the fluorescence (ex: 489 nm, em: 533 nm) was measured with a SpectraMax Gemini XPS microplate reader (Molecular Devices). Each binding experiment was done in triplicate.

[3] = target: T2, MMP-1 digested type I collagen (Rattus norvegicus, UniProt P02454+P02466); test: Staining of SDS-PAGE gels using photo-decaged CMP; assay type: binding; conditions: 6 μM, UV-activation
T2 construct: purchased BD Science (collagen); EMD Millipore (ProMMP-1); host or cells: rat tail; digested in house
T2 sequence (P02454 152-942 limits assumed): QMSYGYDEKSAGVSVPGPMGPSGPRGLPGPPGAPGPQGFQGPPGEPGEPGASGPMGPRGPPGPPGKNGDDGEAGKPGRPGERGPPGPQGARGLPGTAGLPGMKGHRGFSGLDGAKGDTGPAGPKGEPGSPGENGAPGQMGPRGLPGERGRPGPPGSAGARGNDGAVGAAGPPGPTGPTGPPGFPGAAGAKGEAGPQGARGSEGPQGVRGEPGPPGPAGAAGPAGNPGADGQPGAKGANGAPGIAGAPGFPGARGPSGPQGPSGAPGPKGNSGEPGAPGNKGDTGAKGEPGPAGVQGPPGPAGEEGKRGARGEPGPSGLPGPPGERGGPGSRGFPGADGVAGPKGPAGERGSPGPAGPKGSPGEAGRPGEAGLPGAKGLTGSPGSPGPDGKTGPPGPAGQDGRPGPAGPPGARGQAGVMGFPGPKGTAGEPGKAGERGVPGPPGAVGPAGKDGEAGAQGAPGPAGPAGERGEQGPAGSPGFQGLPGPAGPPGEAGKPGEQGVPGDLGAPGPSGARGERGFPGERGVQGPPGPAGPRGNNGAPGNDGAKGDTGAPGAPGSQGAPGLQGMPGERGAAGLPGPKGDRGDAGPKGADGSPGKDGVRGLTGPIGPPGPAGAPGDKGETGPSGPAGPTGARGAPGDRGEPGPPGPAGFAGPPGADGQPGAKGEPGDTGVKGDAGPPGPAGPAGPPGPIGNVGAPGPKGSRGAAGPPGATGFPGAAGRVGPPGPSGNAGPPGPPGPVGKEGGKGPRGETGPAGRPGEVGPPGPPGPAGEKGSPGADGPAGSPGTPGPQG
T2 sequence (P02454 943-1207 limits assumed): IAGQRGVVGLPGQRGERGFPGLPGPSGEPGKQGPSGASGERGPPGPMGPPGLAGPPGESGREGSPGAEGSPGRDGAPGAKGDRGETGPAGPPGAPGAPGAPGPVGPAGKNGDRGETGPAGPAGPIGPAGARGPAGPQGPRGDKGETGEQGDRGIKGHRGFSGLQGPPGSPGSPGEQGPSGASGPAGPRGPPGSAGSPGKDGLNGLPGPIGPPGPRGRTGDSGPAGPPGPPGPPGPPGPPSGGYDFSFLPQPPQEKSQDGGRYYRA
T2 sequence (P02466 86-871 limits assumed): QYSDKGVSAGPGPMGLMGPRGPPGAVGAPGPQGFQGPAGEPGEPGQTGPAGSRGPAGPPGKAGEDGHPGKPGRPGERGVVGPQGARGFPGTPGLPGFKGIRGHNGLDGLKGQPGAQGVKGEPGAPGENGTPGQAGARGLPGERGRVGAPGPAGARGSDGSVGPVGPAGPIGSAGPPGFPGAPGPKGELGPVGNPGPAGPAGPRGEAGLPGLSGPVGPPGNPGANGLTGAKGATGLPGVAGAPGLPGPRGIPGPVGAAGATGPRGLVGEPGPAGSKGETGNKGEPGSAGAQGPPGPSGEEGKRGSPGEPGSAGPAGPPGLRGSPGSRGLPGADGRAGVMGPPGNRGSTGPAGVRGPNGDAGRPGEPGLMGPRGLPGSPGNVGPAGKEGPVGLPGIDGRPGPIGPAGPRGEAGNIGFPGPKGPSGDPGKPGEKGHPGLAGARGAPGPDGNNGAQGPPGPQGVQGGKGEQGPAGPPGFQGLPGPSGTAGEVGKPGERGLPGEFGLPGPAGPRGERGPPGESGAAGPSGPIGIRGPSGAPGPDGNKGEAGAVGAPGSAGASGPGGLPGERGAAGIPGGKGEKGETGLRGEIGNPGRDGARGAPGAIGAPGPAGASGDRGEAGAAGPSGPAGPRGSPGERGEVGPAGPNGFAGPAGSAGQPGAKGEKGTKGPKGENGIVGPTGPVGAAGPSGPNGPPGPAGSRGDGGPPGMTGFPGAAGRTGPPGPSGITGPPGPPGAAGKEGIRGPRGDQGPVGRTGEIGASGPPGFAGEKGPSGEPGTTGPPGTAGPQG
T2 sequence (P02466 872-1125 limits assumed): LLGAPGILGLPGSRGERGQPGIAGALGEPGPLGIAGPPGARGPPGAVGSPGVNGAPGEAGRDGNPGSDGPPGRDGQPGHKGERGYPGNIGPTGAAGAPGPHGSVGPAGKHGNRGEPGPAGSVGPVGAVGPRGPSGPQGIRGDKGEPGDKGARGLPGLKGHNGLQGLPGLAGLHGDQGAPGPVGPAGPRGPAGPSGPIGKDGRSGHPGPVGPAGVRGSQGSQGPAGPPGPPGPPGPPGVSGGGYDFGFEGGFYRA
Experimental: Staining of SDS-PAGE gels using photo-decaged CF(GPO)9 (SEQ ID NO: 10). MMP-1 digested type I collagen (3.5 μg) was separated by SDS-PAGE (4-12% polyacrylamide gel) under non-reducing condition, along with unstained protein ladder (Life technologies, LC5801). After washing, the gel was soaked in 6 μM CF^NB(GPO)9 (SEQ ID NO: 4) (or CF^SG9P9O9 (SEQ ID NO: 5)) in 1×PBS solution, followed by exposure to 365 nm UV light for 15 min, and 2.5 hr of staining. The gel was washed with deionized water and scanned using Typhoon 9410 Imager (GE Healthcare) with 488 nm fluorescence channel. Afterwards, the protein gel was stained by coomassie brilliant blue and imaged by Gel Doc EQ system (BioRad).

| refolding kinetics (CD 225 nm) [1] | binding (fluorescence intensity of film) ([2]; caged, UV−) | Substance | collagen binding with and without UV exposure ([2]; 4° C., intact type I collagen films) | staining of MMP-1 digested collagen bands [3] | staining of protein ladder bands [3] | CMP binding lower by a factor of, compared to UV-triggered binding of CF^NB(GPO)9 ([2]; non-caged, triple helical, with UV exposure, 4° C.) | heat-induced binding level compared to photo-triggered caged CF^NB(GPO)9 ([2]; thermally melted at 75° C., non-caged) |
| --- | --- | --- | --- | --- | --- | --- | --- |
| fast refolding kinetics | negligible | CF-GGG-(GPO)4^NBGPO(GPO)4 [CF^NB(GPO)9] | collagen binding was observed only after exposing the sample to UV light | able to stain the MMP-1 digested collagen bands | No other bands from the protein ladder were stained |  |  |
|  |  | CF-GGG-(GPO)9 [CF(GPO)9] |  |  |  | 11 | significantly elevated binding levels; also recorded: significantly higher binding level |
